In PubChem BioAssay AID192 (DTP/NCI, 2004):
Where “and” joins values, the source holds several entries; their conditions need not be identical. Identical values can stand only once. Toxic doses and inconclusive results are not listed.

Tested on: BDF1 mice, B16 melanoma ip, median survival T/C
Assay: NCI In Vivo Anticancer Drug Screen. Data for tumor model B16 Melanoma (intraperitoneal) in B6D2F1 (BDF1) mice
Conditions: endpoint: median survival time, higher = longer survival
Procedure, shortened: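 Transplantable tumor model; survival or tumor size measured; reported as T/C, treated over vehicle control.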

[1] = dose: 12.5 mg/kg/injection, schedule: Q01DX009 (ip), vehicle: saline with Tween-80
[2] = dose: 25.0 mg/kg/injection, schedule: Q01DX009 (ip), vehicle: saline with Tween-80
[3] = dose: 3.12 mg/kg/injection, schedule: Q01DX009 (ip), vehicle: saline
[4] = dose: 6.25 mg/kg/injection, schedule: Q01DX009 (ip), vehicle: saline
[5] = dose: 50.0 mg/kg/injection, schedule: Q01DX009 (ip), vehicle: saline with Tween-80
[6] = dose: 100.0 mg/kg/injection, schedule: Q01DX009 (ip), vehicle: saline with Tween-80
[7] = dose: 100.0 mg/kg/injection, schedule: Q01DX009 (ip), vehicle: Klucel (hydroxypropylcellulose) (HPC)
[8] = dose: 200.0 mg/kg/injection, schedule: Q01DX009 (ip), vehicle: Klucel (hydroxypropylcellulose) (HPC)
[9] = dose: 400.0 mg/kg/injection, schedule: Q01DX009 (ip), vehicle: Klucel (hydroxypropylcellulose) (HPC)

In the case of `COc1cccc2c1C(=O)c1c(O)c3c(c(O)c1C2=O)CC(O)(C(=O)CO)CC3OC1CC(N)C(O)C(C)O1` (stereo not drawn), the T/C (dose: 1.12 mg/kg/injection, schedule: Q01DX001 (ip), vehicle: water) is reported as 178 % of control, the T/C (dose: 2.25 mg/kg/injection, schedule: Q01DX001 (ip), vehicle: water) is reported as 156 % of control and 212 % of control and 228 % of control and the T/C (dose: 2.9 mg/kg/injection, schedule: Q01DX009 (ip), vehicle: saline) is reported as 195 % of control. For the same molecule, the T/C (dose: 4.2 mg/kg/injection, schedule: Q01DX001 (ip), vehicle: water) was 178 % of control, the T/C (dose: 4.32 mg/kg/injection, schedule: Q01DX004 (ip), vehicle: other) was 152 % of control and the T/C (dose: 4.5 mg/kg/injection, schedule: Q01DX001 (ip), vehicle: water) was 161 % of control and 194 % of control and 273 % of control. For the same molecule, the T/C (dose: 6.9 mg/kg/injection, schedule: Q01DX001 (ip), vehicle: water) was 183 % of control, the T/C (dose: 7.2 mg/kg/injection, schedule: Q01DX004 (ip), vehicle: other) was 152 % of control and the T/C (dose: 9.0 mg/kg/injection, schedule: Q01DX001 (ip), vehicle: water) was 203 % of control and 273 % of control and 277 % of control. The T/C (dose: 9.4 mg/kg/injection, schedule: Q01DX001 (ip), vehicle: water) was 189 % of control, the T/C (dose: 10.0 mg/kg/injection, schedule: Q01DX009 (ip), vehicle: saline) was 222 % of control and 298 % of control and the T/C (dose: 11.4 mg/kg/injection, schedule: Q04DX003 (ip), vehicle: saline) was 182 % of control. The T/C (dose: 11.7 mg/kg/injection, schedule: Q01DX009 (ip), vehicle: saline) was 267 % of control, the T/C (dose: 12.0 mg/kg/injection, schedule: Q01DX004 (ip), vehicle: other) was 159 % of control and the T/C (dose: 15.0 mg/kg/injection, schedule: Q01DX001 (ip), vehicle: water) was 108 % of control. For the same molecule, the T/C (dose: 18.0 mg/kg/injection, schedule: Q01DX001 (ip), vehicle: water) was 203 % of control and 250 % of control and 273 % of control, the T/C (dose: 18.75 mg/kg/injection, schedule: Q01DX001 (ip), vehicle: water) was 235 % of control and the T/C (dose: 18.8 mg/kg/injection, schedule: Q01DX001 (ip), vehicle: water) was 200 % of control. The T/C (dose: 19.2 mg/kg/injection, schedule: Q01DX001 (ip), vehicle: water) was 209 % of control, the T/C (dose: 20.0 mg/kg/injection, schedule: Q01DX009 (ip), vehicle: saline) was 289 % of control and 314 % of control and the T/C (dose: 22.8 mg/kg/injection, schedule: Q04DX003 (ip), vehicle: saline) was 236 % of control. For the same molecule, the T/C (dose: 23.4 mg/kg/injection, schedule: Q01DX009 (ip), vehicle: saline) was 165 % of control and 200 % of control, the T/C (dose: 30.0 mg/kg/injection, schedule: Q01DX001 (ip), vehicle: water) was 116 % of control and the T/C (dose: 32.0 mg/kg/injection, schedule: Q01DX001 (ip), vehicle: other) was 164 % of control. The T/C (dose: 36.0 mg/kg/injection, schedule: Q01DX001 (ip), vehicle: water) was 203 % of control, the T/C (dose: 37.5 mg/kg/injection, schedule: Q01DX001 (ip), vehicle: water) was 226 % of control and 280 % of control and the T/C (dose: 40.0 mg/kg/injection, schedule: Q01DX009 (ip), vehicle: saline) was 287 % of control. For the same molecule, the T/C (dose: 45.6 mg/kg/injection, schedule: Q04DX003 (ip), vehicle: saline) was 150 % of control and 276 % of control, the T/C (dose: 46.8 mg/kg/injection, schedule: Q01DX009 (ip), vehicle: saline) was 172 % of control and the T/C (dose: 60.0 mg/kg/injection, schedule: Q01DX001 (ip), vehicle: water) was 114 % of control. The T/C (dose: 72.0 mg/kg/injection, schedule: Q01DX001 (ip), vehicle: water) was 277 % of control, the T/C (dose: 75.0 mg/kg/injection, schedule: Q01DX001 (ip), vehicle: water) was 314 % of control and 334 % of control and the T/C (dose: 91.2 mg/kg/injection, schedule: Q04DX003 (ip), vehicle: saline) was 157 % of control and 276 % of control. For the same molecule, the T/C (dose: 150.0 mg/kg/injection, schedule: Q01DX001 (ip), vehicle: water) was 185 % of control and 315 % of control.
With `CCCCN(CCCC)CCC(=O)c1ccc(OC)c2ccccc12` the T/C [1] was 99 % of control and the T/C [2] was 88 % of control.
For `CNCCOC(c1ccccc1)c1ccccc1C` (stereo not drawn), the T/C [3] was 97 % of control, the T/C [4] was 97 % of control and the T/C (dose: 12.5 mg/kg/injection, schedule: Q01DX009 (ip), vehicle: saline) was 102 % of control. For the same molecule, the T/C (dose: 25.0 mg/kg/injection, schedule: Q01DX009 (ip), vehicle: saline) was 100 % of control and the T/C (dose: 50.0 mg/kg/injection, schedule: Q01DX009 (ip), vehicle: saline) was 104 % of control.
`CC(CN1CCN(CCOCCO)CC1)CN1c2ccccc2Sc2ccc(Cl)cc21` (stereo not drawn) was tested, and the T/C (dose: 0.09 mg/kg/injection, schedule: Q01DX009 (ip), vehicle: saline) was 117 % of control, the T/C (dose: 0.19 mg/kg/injection, schedule: Q01DX009 (ip), vehicle: saline) was 98 % of control and the T/C (dose: 0.39 mg/kg/injection, schedule: Q01DX009 (ip), vehicle: saline) was 121 % of control. The T/C (dose: 0.78 mg/kg/injection, schedule: Q01DX009 (ip), vehicle: saline) was 104 % of control, the T/C (dose: 1.56 mg/kg/injection, schedule: Q01DX009 (ip), vehicle: saline) was 115 % of control and the T/C [3] was 100 % of control. The T/C [4] was 101 % of control.
`ClCCOCOCCCl` was tested, and the T/C (dose: 20.0 mg/kg/injection, schedule: Q04DX003 (ip), vehicle: Klucel (hydroxypropylcellulose) (HPC)) was 101 % of control, the T/C (dose: 40.0 mg/kg/injection, schedule: Q04DX003 (ip), vehicle: Klucel (hydroxypropylcellulose) (HPC)) was 89 % of control and the T/C (dose: 80.0 mg/kg/injection, schedule: Q04DX003 (ip), vehicle: Klucel (hydroxypropylcellulose) (HPC)) was 102 % of control.
`C=C(Cl)CN(CCCC(=O)O)c1cccc(OC)c1` was tested, and the T/C (dose: 100.0 mg/kg/injection, schedule: Q04DX003 (ip), vehicle: other) was 104 % of control, the T/C (dose: 200.0 mg/kg/injection, schedule: Q04DX003 (ip), vehicle: other) was 96 % of control and the T/C (dose: 400.0 mg/kg/injection, schedule: Q04DX003 (ip), vehicle: other) was 94 % of control.
For `CCOC(=O)C(C)(Br)C(=O)OCC`, the T/C [2] was 110 % of control, the T/C (dose: 25.0 mg/kg/injection, schedule: Q04DX003 (ip), vehicle: saline) was 115 % of control and the T/C [5] was 102 % of control. The T/C (dose: 50.0 mg/kg/injection, schedule: Q04DX003 (ip), vehicle: saline) was 118 % of control, the T/C [6] was 95 % of control and the T/C (dose: 100.0 mg/kg/injection, schedule: Q04DX003 (ip), vehicle: saline) was 118 % of control.
In the case of `CCCNCCN(CC)CC`, the T/C [5] is reported as 107 % of control, the T/C [6] is reported as 100 % of control and the T/C (dose: 200.0 mg/kg/injection, schedule: Q01DX009 (ip), vehicle: saline with Tween-80) is reported as 99 % of control.
In the case of `COc1ccc(OC)c(/C=C/C(=O)c2ccc(Cl)cc2)c1`, the T/C [7] is reported as 92 % of control, the T/C (dose: 100.0 mg/kg/injection, schedule: Q04DX003 (ip), vehicle: Klucel (hydroxypropylcellulose) (HPC)) is reported as 103 % of control and the T/C [8] is reported as 92 % of control. For the same molecule, the T/C (dose: 200.0 mg/kg/injection, schedule: Q04DX003 (ip), vehicle: Klucel (hydroxypropylcellulose) (HPC)) was 109 % of control, the T/C [9] was 89 % of control and the T/C (dose: 400.0 mg/kg/injection, schedule: Q04DX003 (ip), vehicle: Klucel (hydroxypropylcellulose) (HPC)) was 103 % of control.
With `Cc1cccc(NC(=O)c2ccc(Cl)cc2)c1C` the T/C [7] was 93 % of control, the T/C [8] was 89 % of control and the T/C [9] was 89 % of control.
`CCCC(=O)NC1CCc2cc(OC)c(OC)c(OC)c2-c2ccc(OC)c(=O)cc21` (stereo not drawn) was tested, and the T/C (dose: 0.15 mg/kg/injection, schedule: Q01DX009 (ip), vehicle: Klucel (hydroxypropylcellulose) (HPC)) was 115 % of control, the T/C (dose: 0.31 mg/kg/injection, schedule: Q01DX009 (ip), vehicle: Klucel (hydroxypropylcellulose) (HPC)) was 112 % of control and the T/C (dose: 0.63 mg/kg/injection, schedule: Q01DX009 (ip), vehicle: Klucel (hydroxypropylcellulose) (HPC)) was 119 % of control. For the same molecule, the T/C (dose: 2.5 mg/kg/injection, schedule: Q01DX009 (ip), vehicle: Klucel (hydroxypropylcellulose) (HPC)) was 123 % of control.
`OCC1OC(n2cnc3cc(Cl)c(Cl)cc32)C(O)C1O` (stereo not drawn) was tested, and the T/C (dose: 6.25 mg/kg/injection, schedule: Q01DX009 (ip), vehicle: saline with Tween-80) was 101 % of control and 117 % of control, the T/C [1] was 100 % of control and 104 % of control and 113 % of control and the T/C [2] was 97 % of control and 113 % of control and 114 % of control. The T/C [5] was 107 % of control and 116 % of control and the T/C [6] was 102 % of control and 121 % of control.
In the case of `CCC(C)C1NC(=O)C(NC(=O)c2c3nc4c(C(=O)NC5C(=O)NC(C(C)CC)C(=O)N6CCCC6C(=O)N(C)CC(=O)N(C)C(C(C)C)C(=O)OC5C)ccc(C)c4oc-3c(C)c(=O)c2Cl)C(C)OC(=O)C(C(C)C)N(C)C(=O)CN(C)C(=O)C2CCCN2C1=O` (stereo not drawn), the T/C (dose: 1.25 mg/kg/injection, schedule: Q01DX009 (ip), vehicle: Klucel (hydroxypropylcellulose) (HPC)) is reported as 117 % of control and the T/C (dose: 10.0 mg/kg/injection, schedule: Q01DX009 (ip), vehicle: Klucel (hydroxypropylcellulose) (HPC)) is reported as 164 % of control.
